Measured values reported in ChEMBL document CHEMBL4483862, “Open-source discovery of chemical leads for next-generation chemoprotective antimalarials” (2018).

System: Plasmodium berghei
Assay: Luciferase/luciferin-expressing antifolate-resistant parasites were used to infect a culture of HepG2 cells that were pre-incubated with compounds. Infected hepatocytes emit light due to the luciferase reaction. Assay results are presented as the percent inhibition of light emission compared to control. […]
Type: functional
Details: sporozoite; for IC90: read-out: LUCIFERASE INFECTION ASSAY - IC90
[1] = read-out: LUCIFERASE INFECTION ASSAY - IC50

Structure (SMILES) | IC90 | also measured
Brc1ccc(C2C(c3nc4ccccc4[nH]3)=C(c3ccccc3)N=C(c3ccccc3)C2c2nc3ccccc3[nH]2)cc1 (stereo not given) | > 10 µM | IC50 [1]: > 10 µM
Cc1nn(Cc2nnc(-c3ccco3)o2)c(C)c1S(=O)(=O)N1CCCCC1 | > 10 µM | IC50 [1]: > 10 µM
Cc1nc(NCCNc2cnccn2)c2c(-c3cccs3)csc2n1 | 5.98 µM | IC50 (HEPG2TOX_HILL_SLOPE 0.714, HEPG2TOX_R_SQUARED 0.963, PBLUC_HILL_SLOPE 3.5, PBLUC_R_SQUARED 0.488, read-out: LUCIFERASE INFECTION ASSAY - IC50): 3.19 µM
COc1ccc2c(C)cc3nnc(SCC(=O)NCC45CC6CC(CC(C6)C4)C5)n3c2c1 | > 10 µM | IC50 (HEPG2TOX_HILL_SLOPE 7.95, HEPG2TOX_R_SQUARED 0.512, PBLUC_HILL_SLOPE 13.7, PBLUC_R_SQUARED 0.353, read-out: LUCIFERASE INFECTION ASSAY - IC50): 8.94 µM
CN(C)c1cccc(-c2cnc3cnc(-c4cccnc4)cn23)c1 | > 10.5 µM | IC50 (PBLUC_HILL_SLOPE 3.32, PBLUC_R_SQUARED 0.395, read-out: LUCIFERASE INFECTION ASSAY - IC50): 8.6 µM
CNc1snc(C)c1C(=O)NCc1ccc(COCC(F)(F)F)cc1 | 1.72 µM | IC50 (HEPG2TOX_HILL_SLOPE 1.16, HEPG2TOX_R_SQUARED 0.865, PBLUC_HILL_SLOPE 3.24, 27.9, PBLUC_R_SQUARED 0.892, 0.904, read-out: LUCIFERASE INFECTION ASSAY - IC50): 1.12 µM
COc1ccc2c(c1)[nH]c1c(N(C)CCc3ccc(OC)c(OC)c3)ncnc12 | > 8.41 µM | IC50 (HEPG2TOX_HILL_SLOPE 1.05, HEPG2TOX_R_SQUARED 0.856, PBLUC_HILL_SLOPE 1.55, PBLUC_R_SQUARED 0.53, read-out: LUCIFERASE INFECTION ASSAY - IC50): 4.47 µM
CC(C)(C)c1ccc(OS(=O)(=O)c2ccc(-c3csnn3)s2)cc1 | > 8.67 µM | IC50 (HEPG2TOX_HILL_SLOPE 1.63, HEPG2TOX_R_SQUARED 0.666, PBLUC_HILL_SLOPE 2.62, PBLUC_R_SQUARED 0.635, read-out: LUCIFERASE INFECTION ASSAY - IC50): 5.74 µM
CC(=O)Nc1ccc(NC(=O)C2=COC3=NC(=O)N(Cc4ccccc4C)CCN23)cc1 | > 10 µM | IC50 (HEPG2TOX_HILL_SLOPE 0.88, HEPG2TOX_R_SQUARED 0.892, PBLUC_HILL_SLOPE 1, PBLUC_R_SQUARED 0.725, read-out: LUCIFERASE INFECTION ASSAY - IC50): 4.16 µM
O=S(=O)(NCCCCOc1ccc(Cl)cc1)c1ccc(S(=O)(=O)N2CCOCC2)cc1 | > 10 µM | IC50 [1]: 9.97 µM
Cc1ccc(C2(C(F)(F)F)NC(=O)c3ccc(OC(C)C)cc3O2)cc1 (stereo not given) | > 10 µM | IC50 [1]: 3.99 µM
Cc1ccc(NCC(=O)NC(=O)Nc2cccc(C)c2C)cc1S(=O)(=O)N1CCCCC1 | > 10 µM | IC50 (HEPG2TOX_HILL_SLOPE 1.43, HEPG2TOX_R_SQUARED 0.867, PBLUC_HILL_SLOPE 1.55, PBLUC_R_SQUARED 0.466, read-out: LUCIFERASE INFECTION ASSAY - IC50): 2.55 µM
COCCNc1ccc2ncc(-c3ccc(Cl)cc3)n2n1 | 5.92 µM | IC50 (HEPG2TOX_HILL_SLOPE 7.9, HEPG2TOX_R_SQUARED 0.252, PBLUC_HILL_SLOPE 6.86, PBLUC_R_SQUARED 0.283, read-out: LUCIFERASE INFECTION ASSAY - IC50): 4.3 µM
O=C(Nc1ccc2c(c1)OC1(CCCCC1)O2)c1ccc[nH]c1=S | 4.02 µM | IC50 (PBLUC_HILL_SLOPE 0.703, PBLUC_R_SQUARED 0.661, read-out: LUCIFERASE INFECTION ASSAY - IC50): 0.176 µM
CCn1c(=O)[nH]c(=O)c2cc(C(=O)Nc3ccc(Oc4ccccc4)cc3)cnc21 | > 10 µM | IC50 (PBLUC_HILL_SLOPE 2.4, PBLUC_R_SQUARED 0.0614, read-out: LUCIFERASE INFECTION ASSAY - IC50): 6.87 µM
COc1ccc(-c2cnc3c(Nc4cccc(OC(F)(F)C(F)F)c4)nccn23)cc1 | 2.67 µM | IC50 (HEPG2TOX_HILL_SLOPE 1.95, HEPG2TOX_R_SQUARED 0.977, PBLUC_HILL_SLOPE 27.6, PBLUC_R_SQUARED 0.693, read-out: LUCIFERASE INFECTION ASSAY - IC50): 2.47 µM
O=c1cc(CN2CCCc3ccc(C(F)(F)F)cc32)nc2sccn12 | > 10 µM | IC50 [1]: > 10 µM
Cn1c(-c2ccsc2)cc2c(Nc3ccc(Oc4ccccc4)cc3)nccc21 | 3.44 µM | IC50 (HEPG2TOX_HILL_SLOPE 11.7, HEPG2TOX_R_SQUARED 0.553, PBLUC_HILL_SLOPE 10.6, PBLUC_R_SQUARED 0.752, read-out: LUCIFERASE INFECTION ASSAY - IC50): 2.8 µM
Cc1cc(C(=O)Nc2nc3c(C)cccn3c2C(=O)NC2CCCC2)c(C)o1 | > 8.67 µM | IC50 [1]: > 8.67 µM
Cc1ccsc1C(=O)OCC(=O)Nc1cc(C(C)(C)C)no1 | > 10 µM | IC50 [1]: > 10 µM

Structure (SMILES) | IC90 | also measured
O=C(Nc1ccc(OC(F)(F)F)cc1)Nc1cncc(C(F)(F)F)c1 | 6.72 µM | IC50 (FFLUC_HILL_SLOPE 0.707, FFLUC_R_SQUARED 0.204, PBLUC_HILL_SLOPE 4.06, PBLUC_R_SQUARED 0.292, read-out: LUCIFERASE INFECTION ASSAY - IC50): 3.91 µM
N#Cc1c(SCc2ccccc2)nc2c(c1-c1cccs1)CCCC2 | > 9.1 µM | IC50 (FFLUC_HILL_SLOPE 16.1, FFLUC_R_SQUARED 0.0835, PBLUC_HILL_SLOPE 1.89, PBLUC_R_SQUARED 0.544, read-out: LUCIFERASE INFECTION ASSAY - IC50): 3.48 µM
Cc1cc2ccccn2c1C(=O)c1ccc(-c2ccccc2)cc1 | 3.77 µM | IC50 (HEPG2TOX_HILL_SLOPE 2.45, HEPG2TOX_R_SQUARED 0.945, PBLUC_HILL_SLOPE 19.6, PBLUC_R_SQUARED 0.427, read-out: LUCIFERASE INFECTION ASSAY - IC50): 3.37 µM
CCc1ccc(-c2noc(CN3CCN(C(=O)c4ccccc4)CC3)n2)cc1 | > 10 µM | IC50 (HEPG2TOX_HILL_SLOPE 8.06, HEPG2TOX_R_SQUARED 0.791, read-out: LUCIFERASE INFECTION ASSAY - IC50): > 10 µM
CCc1ccc(CN(C)C(=O)c2cccc(S(=O)(=O)Nc3ccccc3OC)c2)cc1 | > 10 µM | IC50 (HEPG2TOX_HILL_SLOPE 2.04, HEPG2TOX_R_SQUARED 0.142, read-out: LUCIFERASE INFECTION ASSAY - IC50): > 10 µM
N#CC(C(=O)c1cc(S(=O)(=O)N2CCc3ccccc3C2)ccc1Cl)c1ccccn1 (stereo not given) | 3.76 µM | IC50 (PBLUC_HILL_SLOPE 17.6, PBLUC_R_SQUARED 0.387, read-out: LUCIFERASE INFECTION ASSAY - IC50): 3.32 µM
CC1CCC2(CC1)NC(=O)N(CC(=O)NCC(F)(F)F)C2=O (stereo not given) | > 10 µM | IC50 [1]: > 10 µM
Cc1cc(C)n(-c2nc(-c3ccccc3)cc(N3CCOCC3)n2)n1 | 6.26 µM | IC50 (PBLUC_HILL_SLOPE 5.14, PBLUC_R_SQUARED 0.351, read-out: LUCIFERASE INFECTION ASSAY - IC50): 4.08 µM
CC(=O)N[C@H]1[C@@H](OC(C)=O)O[C@H](COC(c2ccccc2)(c2ccccc2)c2ccccc2)[C@@H](OC(C)=O)[C@@H]1OC(C)=O | > 5.6 µM | IC50 [1]: > 5.6 µM
Cc1c(C(=O)Nc2ccc(Oc3ccccc3)cc2)[nH]c2c1C(=O)CCC2 | > 10 µM | IC50 (PBLUC_HILL_SLOPE 16.6, PBLUC_R_SQUARED 0.701, read-out: LUCIFERASE INFECTION ASSAY - IC50): 9.52 µM
COc1cccc(-c2cc3c(Nc4cccnc4)nccc3[nH]2)c1 | > 10 µM | IC50 (PBLUC_HILL_SLOPE 3.56, PBLUC_R_SQUARED 0.0884, read-out: LUCIFERASE INFECTION ASSAY - IC50): 9.12 µM
CNc1nc2cnc(Nc3ccc(Oc4ccccc4)cc3)cc2n1C | > 10 µM | IC50 [1]: > 10 µM
O=C(OCCSc1ccc([N+](=O)[O-])c2nonc12)c1ccc(F)cc1 | > 9.08 µM | IC50 (FFLUC_HILL_SLOPE 1.52, FFLUC_R_SQUARED 0.911, HEPG2TOX_HILL_SLOPE 8.69, HEPG2TOX_R_SQUARED 0.77, PBLUC_HILL_SLOPE 16.5, PBLUC_R_SQUARED 0.0304, read-out: LUCIFERASE INFECTION ASSAY - IC50): > 9.08 µM
Cc1nc2ccc(NC(=O)c3ccc4[nH]c(C)c(C)c4c3)cc2s1 | > 9.84 µM | IC50 (PBLUC_HILL_SLOPE 1.58, PBLUC_R_SQUARED 0.399, read-out: LUCIFERASE INFECTION ASSAY - IC50): > 9.84 µM
COc1ccccc1/C=C(/C(=O)OC(C(=O)c1c[nH]c2ccccc12)c1ccccc1)c1ccccc1 (stereo not given) | > 10 µM | IC50 (FFLUC_HILL_SLOPE 11.3, FFLUC_R_SQUARED 0.353, PBLUC_HILL_SLOPE 1.04, PBLUC_R_SQUARED 0.705, read-out: LUCIFERASE INFECTION ASSAY - IC50): 3.6 µM
Cc1cc(C(=O)COC(=O)c2[nH]nc3ccccc23)c(C)n1Cc1cccs1 | 6.39 µM | IC50 (PBLUC_HILL_SLOPE 1.56, PBLUC_R_SQUARED 0.399, read-out: LUCIFERASE INFECTION ASSAY - IC50): 1.56 µM
NC(=O)c1ccc(-c2cc(-c3ccccc3)cnc2N)cc1 | 4.22 µM | IC50 (HEPG2TOX_HILL_SLOPE 7.43, HEPG2TOX_R_SQUARED 0.0328, PBLUC_HILL_SLOPE 16.6, PBLUC_R_SQUARED 0.439, read-out: LUCIFERASE INFECTION ASSAY - IC50): 3.7 µM
CC1N(C)c2ccc(/C=C/c3nc4ccccc4s3)cc2C1(C)C (stereo not given) | 4.73 µM | IC50 (HEPG2TOX_HILL_SLOPE 3.14, HEPG2TOX_R_SQUARED 0.947, PBLUC_HILL_SLOPE 1.36, 1.57, PBLUC_R_SQUARED 0.638, 0.693, read-out: LUCIFERASE INFECTION ASSAY - IC50): 1.03 µM
CS(=O)(=O)Nc1cccc(-c2cn3c(-c4ccc(CO)cc4)cnc3cn2)c1 | 8.14 µM | IC50 (PBLUC_HILL_SLOPE 16.4, PBLUC_R_SQUARED 0.351, read-out: LUCIFERASE INFECTION ASSAY - IC50): 7.12 µM
CC(C)c1ccc(CS(=O)(=O)C(C)C(=O)NC2CCCC2)cc1 (stereo not given) | > 10 µM | IC50 [1]: > 10 µM
